Laboratory results taken from US11161860B2, “Compound having effects of inhibiting phosphodiesterase 4, preparation method thereof and pharmaceutical use thereof” (Hefei Industrial Pharmaceutical Institute Co., Ltd., priority 2018, dated 2021).
Marks after values point to notes of the source that are not given here.

Legend:
[1] = test system: DNCB-induced atopic dermatitis mice; assay: DNCB-induced dermatitis mouse model, skin thickness; format: in vivo, female BALB/C mice; conditions: for reduction of the thickness of the dermis compared with Crisaborole / reduction of the thickness of the epidermis compared with Crisaborole / reduction of the thickness of the dermis compared with the compound Y5 / reduction of the thickness of the epidermis compared with the compound Y5: 50 mg/mL topical; for reduction of the thickness of the dermis compared with Crisaborole / reduction of the thickness of the epidermis compared with Crisaborole: statistical comparison vs Crisaborole group; for Epidermal thickness / Dermis thickness: 50 mg/mL, 100 μL applied to back skin, 11 times once a day, Mean ± SD, n = 8; for Epidermal thickness: model 137.76, blank 48.93; for Dermis thickness: model 500.71, blank 194.70; for reduction of the thickness of the dermis compared with the compound Y5 / reduction of the thickness of the epidermis compared with the compound Y5: statistical comparison vs Y5 group
Description: After female BALB/C mice are selected, each weighing 18-22 g, for animal adaptive breeding for 7 days, these are randomly divided into a blank group, a model group, a positive drug Crisaborole group, a hexadecadrol group, and compound groups, with 8 in each group. Except for the mice in the blank group, the remaining mice are applied with 100 μL of a 1% DNCB solution [acetone: olive oil=4:1 (V/V)] on the skin of the back of the shaved mice, and applied continuously for 3 days once a day. Then, dosing treatment starts 4 days after the mice are housed, and the test drug is applied to the back of each group of animals, wherein animals in the blank group and the model group are applied with a corresponding solvent, the positive drug Crisaborole group and hexadecadrol group are applied with 50 mg/mL of a corresponding drug, and the administration group is applied with 50 mg/mL of a corresponding compound, with 100 μL for each mouse; after application of 4 hours, 0.5% DNCB solution is applied for secondary challenge, and repeated administration and challenge treatment are performed 11 times, once a day. 24 hours after the last administration, the animals are sacrificed, and the back skins (1×0.4 cm^2) are taken and fixed in 10% formalin buffer to make pathological sections and perform HE staining; then, the epidermal and dermal layers are observed under a 100× […], and 5 areas are selected for detection of and recording the skin thickness, and then the average value is taken to represent the final thicknesses of the epidermal layer and dermal layer, respectively.

PDE4A enzyme = molecular target: T1, PDE4A enzyme (Homo sapiens, UniProt P27815); assay: Inhibition of the activity of PDE4A enzyme (fluorescence polarization, Transcreener AMP2/GMP2); format: biochemical; conditions: 1 h, mean ± spread; for remaining activity at 0.01 µM: 0.01 μM compound; for remaining activity at 0.1 µM: 0.1 μM compound; for remaining activity at 1 µM: 1 μM compound
T1 construct: GST (N); host or cells: Sf9 insect cells (baculovirus)
T1 sequence (P27815 whole entry, species assumed): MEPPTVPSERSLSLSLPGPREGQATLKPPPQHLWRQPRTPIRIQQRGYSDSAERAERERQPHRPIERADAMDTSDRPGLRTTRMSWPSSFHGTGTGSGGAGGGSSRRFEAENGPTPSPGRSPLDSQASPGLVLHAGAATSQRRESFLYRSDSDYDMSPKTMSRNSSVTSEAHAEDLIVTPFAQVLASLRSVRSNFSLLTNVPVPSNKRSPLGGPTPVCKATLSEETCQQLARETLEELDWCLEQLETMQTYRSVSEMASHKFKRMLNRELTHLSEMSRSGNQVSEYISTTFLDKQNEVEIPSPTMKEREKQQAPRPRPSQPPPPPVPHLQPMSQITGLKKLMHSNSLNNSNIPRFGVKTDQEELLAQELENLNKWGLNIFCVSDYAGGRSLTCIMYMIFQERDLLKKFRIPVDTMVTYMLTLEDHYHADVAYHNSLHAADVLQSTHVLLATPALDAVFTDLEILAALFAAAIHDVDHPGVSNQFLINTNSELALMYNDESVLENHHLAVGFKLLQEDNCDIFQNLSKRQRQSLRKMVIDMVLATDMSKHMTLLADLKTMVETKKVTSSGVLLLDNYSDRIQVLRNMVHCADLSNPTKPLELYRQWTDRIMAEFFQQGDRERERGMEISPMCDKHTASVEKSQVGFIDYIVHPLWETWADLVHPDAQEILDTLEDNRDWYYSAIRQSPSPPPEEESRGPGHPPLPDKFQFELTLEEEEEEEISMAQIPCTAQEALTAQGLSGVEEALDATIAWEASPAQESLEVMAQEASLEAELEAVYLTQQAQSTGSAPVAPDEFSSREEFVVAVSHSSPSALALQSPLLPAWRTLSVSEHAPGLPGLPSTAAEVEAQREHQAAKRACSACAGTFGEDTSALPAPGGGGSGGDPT
Description: The PDE4A enzyme expressed from baculovirus is labeled with N-terminal GST from Sf9 insect cells. A specified PDE4A enzyme and 1 mM cAMP are added to the newly prepared pH 7.5 Tris buffer, the enzyme solution is transferred into reaction wells, and the compound is sonicated in DMSO and then added to the enzyme solution for culturing for 10 minutes at room temperature; the substrate solution is poured into the reaction wells to initiate the reaction and cultured at room temperature for 1 hour, and a detection tracer (AMP2/GMP2 AlexaFluor 633 Tracer) and an antibody (Transcreener® AMP2/GMP2 Antibody) are added to stop the reaction for culturing for 90 minutes with gentle mixing. […]

| SMILES | remaining activity at 0.01 µM (PDE4A enzyme) [%] | remaining activity at 0.1 µM (PDE4A enzyme) [%] | remaining activity at 1 µM (PDE4A enzyme) [%] | reduction of the thickness of the dermis compared with Crisaborole [1] | reduction of the thickness of the epidermis compared with Crisaborole [1] | Epidermal thickness [1] | Dermis thickness [1] | reduction of the thickness of the dermis compared with the compound Y5 [1] | reduction of the thickness of the epidermis compared with the compound Y5 [1] |
| --- | --- | --- | --- | --- | --- | --- | --- | --- | --- |
| COC(=O)c1cccc2cc(Oc3ccc4c(c3)COB4O)ccc12 [PD-24] | 9.17 ± 1 | 7.31 ± 1.16 | 2.64 ± 0.56 | significantly reduce the thickness of the dermis of dermatitis mice (P≤0.05) | significantly reduce the thickness of the epidermis of the dermatitis mice (P≤0.05) | 91.17 ± 9.03 μm | 420.33 ± 24.75 μm | – | – |
| CC(=O)c1ccc2nc(Oc3ccc4c(c3)COB4O)cc(C(F)(F)F)c2c1 [PD-19] | 4.22 ± 0.86 | 1.56 ± 0.48 | 0.54 ± 0.47 | – | – | 96.05 ± 9.75 μm | 441.12 ± 30.17 μm | – | – |
| N#Cc1ccc2nc(Oc3ccc4c(c3)COB4O)cc(F)c2c1 [PD-22] | 7.16 ± 1.04 | 3.06 ± 0.27 | 1.78 ± 0.63 | – | – | 103.45 ± 11.74 μm | 447.77 ± 33.37 μm | – | – |
| OB1OCc2cc(Oc3ccc4c(C(F)(F)F)cccc4n3)ccc21 [PD-7] | 6.41 ± 0.32 | 1.83 ± 0.41 | 1.12 ± 0.99 | significantly reduce the thickness of the dermis of dermatitis mice (P≤0.01) | significantly reduce the thickness of the epidermis (P≤0.01) | 68.21 ± 7.66 aa μm | 370.11 ± 24.60 a a μm | significantly reduce the thickness of the dermis of dermatitis mice (P≤0.01) | significantly reduce the thickness of the epidermis (P≤0.01) |
| OB1OCc2cc(Oc3ccc4cc(C(F)(F)F)ccc4n3)ccc21 [PD-6] | 0.9 ± 0.23 | 0.6 ± 0.1 | 0.32 ± 0.13 | significantly reduce the thickness of the dermis of dermatitis mice (P≤0.01) | significantly reduce the thickness of the epidermis (P≤0.01) | 70.87 ± 14.43 ^aa μm | 380.15 ± 22.54 ^a a μm | significantly reduce the thickness of the dermis of dermatitis mice (P≤0.01) | significantly reduce the thickness of the epidermis (P≤0.01) |
| OB1OCc2cc(Oc3ccc4c(C(F)(F)F)cc(Cl)cc4n3)ccc21 [PD-8] | 4.36 ± 0.59 | 2.25 ± 1.19 | 1.21 ± 0.17 | significantly reduce the thickness of the dermis of dermatitis mice (P≤0.01) | significantly reduce the thickness of the epidermis (P≤0.01) | 76.58 ± 8.79**^##aa μm | 385.17 ± 28.85 ^a μm | significantly reduce the thickness of the dermis of dermatitis mice (P≤0.05) | significantly reduce the thickness of the epidermis (P≤0.01) |
| O=C(O)c1cccc2nc(Oc3ccc4c(c3)COB4O)ccc12 [PD-2] | 7.42 ± 2.11 | 3.8 ± 0.76 | 2.75 ± 0.51 | – | – | 100.26 ± 11.35 μm | 439.76 ± 30.02 μm | – | – |

Second part, led by results:

| remaining activity at 0.01 µM (PDE4A enzyme) [%] | remaining activity at 0.1 µM (PDE4A enzyme) [%] | remaining activity at 1 µM (PDE4A enzyme) [%] | SMILES | reduction of the thickness of the dermis compared with Crisaborole [1] | reduction of the thickness of the epidermis compared with Crisaborole [1] | Epidermal thickness [1] | Dermis thickness [1] | reduction of the thickness of the dermis compared with the compound Y5 [1] | reduction of the thickness of the epidermis compared with the compound Y5 [1] |
| --- | --- | --- | --- | --- | --- | --- | --- | --- | --- |
| 3.57 ± 1.08 | 1.26 ± 1.17 | 0.15 ± 0.1 | CC(=O)c1ccc2nc(Oc3ccc4c(c3)COB4O)ccc2c1 [PD-14] | significantly reduce the thickness of the dermis of dermatitis mice (P≤0.01) | significantly reduce the thickness of the epidermis (P≤0.01) | 75.24 ± 7.98 aa μm | 365.40 ± 21.95 ^a a μm | significantly reduce the thickness of the dermis of dermatitis mice (P≤0.01) | significantly reduce the thickness of the epidermis (P≤0.01) |
| 2.09 ± 0.99 | 0.54 ± 0.5 | 1.08 ± 0.4 | OB1OCc2cc(Oc3ccc4cc(C(F)(F)F)c(Cl)cc4n3)ccc21 [PD-15] | significantly reduce the thickness of the dermis of dermatitis mice (P≤0.01) | significantly reduce the thickness of the epidermis (P≤0.01) | 74.28 ± 8.26**^##aa μm | 376.62 ± 23.73 ^a a μm | significantly reduce the thickness of the dermis of dermatitis mice (P≤0.01) | significantly reduce the thickness of the epidermis (P≤0.01) |
| 6.17 ± 0.34 | 2.49 ± 0.75 | 1.95 ± 0.18 | N#Cc1ccc2nc(Oc3ccc4c(c3)COB4O)ccc2c1 [PD-4] | significantly reduce the thickness of the dermis of dermatitis mice (P≤0.01) | significantly reduce the thickness of the epidermis (P≤0.01) | 70.42 ± 9.24 aa μm | 375.06 ± 20.41 a a μm | significantly reduce the thickness of the dermis of dermatitis mice (P≤0.01) | significantly reduce the thickness of the epidermis (P≤0.01) |
| 12.8 ± 1.82 | 7.23 ± 1.83 | 2.04 ± 0.24 | N#Cc1ccc2nc(Cl)cc(Oc3ccc4c(c3)COB4O)c2c1 [PD-26] | significantly reduce the thickness of the dermis of dermatitis mice (P≤0.01) | significantly reduce the thickness of the epidermis of the dermatitis mice (P≤0.05) | 83.94 ± 7.63 μm | 408.97 ± 23.06 μm | – | – |
| 10.8 ± 1.6 | 2.45 ± 0.32 | 1.55 ± 0.67 | COC(=O)c1ccc2nc(Oc3ccc4c(c3)COB4O)ccc2c1 [PD-10] | significantly reduce the thickness of the dermis of dermatitis mice (P≤0.01) | significantly reduce the thickness of the epidermis (P≤0.01) | 92.17 ± 9.94 μm | 406.74 ± 29.54 μm | – | – |
| 9.14 ± 0.89 | 4.42 ± 0.64 | 2.1 ± 0.93 | OB1OCc2cc(Oc3cc(Cl)nc4ccc(C(F)(F)F)cc34)ccc21 [PD-28] | – | – | 70.51 ± 12.45 μm | 352.69 ± 30.77**^aa μm | – | – |
| 3.41 ± 0.45 | 1.92 ± 0.39 | 0.99 ± 0.85 | N#Cc1ccc2nc(Oc3ccc4c(c3)COB4O)cc(C(F)(F)F)c2c1 [PD-9] | significantly reduce the thickness of the dermis of dermatitis mice (P≤0.05) | significantly reduce the thickness of the epidermis of the dermatitis mice (P≤0.05) | 97.25 ± 10.43 μm | 413.25 ± 31.50 μm | – | – |
| 4.17 ± 0.99 | 1.89 ± 0.6 | 0.77 ± 0.39 | OB1OCc2cc(Oc3cc(C(F)(F)F)c4cc(C(F)(F)F)ccc4n3)ccc21 [PD-17] | significantly reduce the thickness of the dermis of dermatitis mice (P≤0.01) | significantly reduce the thickness of the epidermis (P≤0.01) | 80.76 ± 10.51 μm | 380.74 ± 20.15 ^a a μm | significantly reduce the thickness of the dermis of dermatitis mice (P≤0.01) | – |
